Experimental data from US8043623B2, “Immunogenic peptides for the treatment of prostate and breast cancer” (The Government of the United States of America as …, priority 2003, dated 2011).
“Also recorded” adds a separate entry of the source. Values belong to the substance of their own block, whether it stands above or below them.

Tests used:
A2K^b transgenic mice = experiment: Immunization of A2K^b transgenic mice; murine CTL assay and intracellular IFN-γ staining; format: in vivo; conditions: for cross-reactivity of murine CD8^+ CTL induced with the peptide: recognition of wild-type TARP-29-37 and other peptides on pulsed targets: Jurkat-HLA-A2 targets pulsed with peptides; for cross-reactivity of murine CD8^+ CTL induced with the peptide: recognition of wild-type TARP-29-37 and other peptides on pulsed targets / killing of target cells pulsed with TARP-27-35 by murine CTL induced with the peptide: ^51Cr release; for frequency of CD8^+ T cells specific for the individual peptide, compared to wild-type TARP-29-37: mice immunized s.c. with peptide and cytokine in adjuvant, IFN-γ staining; for number of IFN-γ-producing CD8^+ T cells, of total CD8^+ T cells: mice immunized with peptide-pulsed DC, intracellular staining
Description: Immunizations. A2K^b transgenic mice were immunized with syngeneic peptide-loaded dendritic cells (DC), plasmid DNA expressing TARP, or the mixture of peptide and cytokine in incomplete Freund's adjuvant (IFA). For DC immunization, DC were pulsed with 10 μM peptide in serum-free RPMI for 2 hours at 37° C., and then mice were immunized subcutaneously (s.c.) with 1-3×10^5 DC without washing. DC were prepared from bone marrow as previously described (Celluzzi et al. J. Exp. Med. 183:283, 1996). Alternatively, mice were immunized intramuscularly with 100 μg plasmid DNA, pcDNA5/FRT/TARP, generated by inserting the TARP DNA into the pcDNA5/RFT (Invitrogen, Carlsbad, Calif.) vector. Mice were also immunized subcutaneously (s.c.) in the base of the tail with 100 μl of an emulsion containing 1:1 IFA and PBS with antigens and cytokines (50 nmol CTL epitope, 50 nmol HBV core 128-140 helper epitope, 3 μg of IL-12, and 5 μg of granulocyte macrophage colony stimulating factor (GM-CSF). IFA and cytokines were purchased from Sigma and Peptotech (Rocky Hill, N.J.), respectively.
(§1) CTL assay. For murine CTL, CD8^+ T cells from the immunized mice were restimulated with peptide-loaded splenocytes for one week as previously described (Oh et al., J Immunol 170:2523, 2003), and then applied to 5 hour ^51Cr release assays. Target cells were labeled with ^51Cr first and washed twice. Cells were then pulsed with peptides for 2 hours and used as target cells without further washing. For human CTL, target cells were also labeled with ^51Cr first, and then loaded with peptides. In the CTL assay against human tumor cells, target cells were incubated in the complete medium containing 1000 units/ml IFN-γ for 72 hours. The mean of triplicate samples was calculated, and the percentage of specific lysis was determined using the following formula: Percentage of specific lysis=100×[(experimental ^51Cr release−control ^51Cr release)/(maximum ^51Cr release−control ^51Cr release)]. The maximum release refers to counts from targets in 2.5% Triton X-100.
Antibody and flow cytometry. FITC-labeled anti-mouse CD8 (53-6.7), CD11c, CD80 (B7-1), CD54 (ICAM-1), anti-human CD8 (RPA-T8), CD14 (M5E2), CD80 (B7-1), and CD86 (B7-2) were used for staining of cell surface molecules. For intracellular IFN-γ staining, cells were stained by following the manufacturer's protocol. All Abs and reagents were purchased from PharMingen. For flow cytometric analysis of cell surface, 5×10^5 cells were washed and resuspended in PBS containing 0.2% BSA and 0.1% sodium azide. Cells were incubated on ice with the appropriate antibody for 30 minutes and then washed. Samples were analyzed on a FACScan (BD Biosciences, Mountain View, Calif.). Background staining was assessed by use of an isotype control antibody. For tetramer staining, cells were incubated with FITC-labeled anti-CD8 for 10 minutes, and then stained with tetramers.

[1] = tested on: peptide-pulsed C1R-A2.1 target cells; experiment: Human CTL 5-hour ^51Cr release assay on peptide-pulsed targets; format: cell-based; conditions: for cytolytic activity of human CD8^+ CTL raised with the peptide against targets pulsed with the corresponding peptide / recognition of TARP-27-35 by human CTL raised with the peptide: C1R-A2.1 targets; for cross-reactivity of human CD8^+ CTL raised with the peptide to other peptides (wild-type TARP-29-37, enhanced epitopes): C1R-A2.1 targets pulsed with 10 μM peptides; for peptide concentration at which CTLs specific for TARP-29-37-9V recognize targets pulsed with the named peptide (avidity): label = peptide pulsed on targets, effector = TARP-29-37-9V-specific human CTL
Description: (§2) In vitro human CD8^+ T cell priming with DC. Elutriated monocytes and lymphocytes were obtained from HLA-A2.1-positive patients or normal donors. To prepare DC, monocytes were cultured at 10^6 cells/ml in complete medium containing human IL-4 (1000 units/ml) and human GM-CSF (1000 units/ml). On day 2 and 4, half of the media was exchanged. To mature the DC, CD40 ligand trimer (Immunex, Seattle, Wash.) was added at 1 μg/ml on day 4 or 5, and then further cultured for 2 or 3 days. Cells were harvested on day 7, and then pulsed with 10 μM of peptides for 2 hours before γ-irradiation. 1×10^5 peptide-pulsed DC and 2×10^6 autologous CD8^+ T cells were mixed and cultured in 24-well plates. 10 units/ml IL-2 was added on day 2 during restimulation. Cells were restimulated every 7-9 days approximately 4-7 cycles.
as §1

MCF-7 = experiment: CTL assay against human tumor cells (MCF-7); format: cell-based
Description: as §2, §1

HLA-A2.1 molecules = target: T1, HLA-A2.1 molecules (Homo sapiens, UniProt P04439, D140Y/D185E/D98H/E176V/E277Q/G131W/G231S/I119V/I121R/I166T/I218V/L300P/L318F/N151K/N90K/P208A/P217A/Q86G/Q94H/R138H/R169H/T345S); experiment: T2-binding assay; conditions: T2 cells; for binding capacity to HLA-A2.1 molecules: overnight with β2-microglobulin, anti-HLA-A2 staining
T1 construct: The T2 cell line is deficient in TAP1 and TAP2 transporter proteins and expresses low levels of HLA-A2.1; endogenous in cells; host or cells: T2 cell line (TAP1/TAP2-deficient)
Description: T2-binding assay. Peptide binding capacity to HLA-A2.1 molecules was measured by using the T2 cell line according to a protocol previously described (Nijman et al., Eu. J. Immunol. 23:1215, 1993). T2 cells (3×10^5/well) were incubated overnight in 96-well plates with culture medium (1:1 mixture of RPMI 1640/EHAA containing 2.5% FBS, 100 U/ml penicillin, 100 μg/ml streptomycin) with 10 μg/ml β2-microglobulin (Sigma) and different concentrations of peptide. Cells were washed twice with cold PBS containing 2% FBS and incubated for 30 minutes at 4° C. with anti-HLA-A2.1 BB7.2 mAb ( 1/80 dilution from hybridoma supernatant). After washing, cells were stained with FITC-labeled goat anti-mouse Ig (PharMingen, San Diego, Calif.) and the level of HLA-A2.1 expression was measured by flow cytometry. HLA-A2.1 expression was quantified as fluorescence index (FI) according to the formula: FI=(mean fluorescence intensity with peptide-mean fluorescence intensity without peptide)/mean fluorescence intensity without peptide.

CD8^+ T cells = experiment: In vitro human CD8^+ T cell priming with peptide-pulsed DC; format: cell-based; conditions: CD8^+ T cells of an HLA-A2.1-positive prostate cancer patient, peptide-pulsed autologous DC
Description: as §2

[2] = 50:1 E/T ratio, targets pre-incubated with IFN-γ 72 hours

Substance: FLANFSLML (TARP peptide with a R3A substitution.) [TARP-29-37-3A]
- cross-reactivity of murine CD8^+ CTL induced with the peptide: recognition of wild-type TARP-29-37 and other peptides on pulsed targets (A2K^b transgenic mice): recognized TARP-29-37-3A/MHC complex better than other peptide/MHC Class I complexes; also recorded: weak cross-reactivity to wild-type peptide in the mice
- killing of target cells pulsed with TARP-27-35 by murine CTL induced with the peptide (A2K^b transgenic mice): did not kill target cells pulsed with TARP-27-35
- frequency of CD8^+ T cells specific for the individual peptide, compared to wild-type TARP-29-37 (A2K^b transgenic mice): almost two-fold higher frequencies of CD8^+ T cells; also recorded: high CD8^+ T cell responses in transgenic mice
- cytolytic activity of human CD8^+ CTL raised with the peptide against targets pulsed with the corresponding peptide [1]: higher levels of cytolytic activity against the corresponding peptides
- recognition of TARP-27-35 by human CTL raised with the peptide [1]: to some extent
- cross-reactivity of human CD8^+ CTL raised with the peptide to other peptides (wild-type TARP-29-37, enhanced epitopes) [1]: poorly recognized the wild-type and TARP-29-37-9V; also recorded: did not recognize other peptides as much as they did the immunogens; also recorded: did not recognize wild-type peptide very well in the human
- peptide concentration at which CTLs specific for TARP-29-37-9V recognize targets pulsed with the named peptide (avidity) [1]: only slightly lower avidity
- lytic activity against MCF-7 of CD8^+ CTL specific for the peptide (MCF-7; [2]): less lytic activity to MCF-7; also recorded: much lower lytic activity against tumor cells than CTLs to TARP-29-37-9V
- lytic activity against MCF-7 of CD8^+ CTL specific for the peptide (MCF-7; 100:1 E/T ratio): comparable range of lytic activity against MCF-7 cells; also recorded: significant range of specific lysis only at a 100:1 E:T ratio
- binding affinity to HLA-A2.1 molecules compared with another peptide (HLA-A2.1 molecules): greatest increase in the binding affinity; also recorded: not less than that of the positive control peptide, FMP; also recorded: highest binding affinity
- cycles of in vitro restimulation needed to detect peptide-specific CD8^+ T cells (CD8^+ T cells): after only four cycles

- binding capacity to HLA-A2.1 molecules (HLA-A2.1 molecules): showed measurable binding capacity
Substance: FLRNFSLML (listed as Homo sapiens) [TARP-29-37]
- peptide-specific CD8^+ T cell responses (CTL) (A2K^b transgenic mice; mice immunized with peptide-pulsed DC or plasmid DNA expressing TARP): lower peptide-specific CD8^+ T cell responses
- number of IFN-γ-producing CD8^+ T cells, of total CD8^+ T cells (A2K^b transgenic mice): significant number of CD8^+ T cells producing IFN-γ
- recognition of TARP-27-35 by human CTL raised with the peptide [1]: to some extent
- cross-reactivity of human CD8^+ CTL raised with the peptide to other peptides (wild-type TARP-29-37, enhanced epitopes) [1]: could recognize and lyse target cells pulsed with the wild-type as well as the two enhanced epitopes; also recorded: killed the wild-type peptide (TARP-29-37, SEQ ID NO: 5)-pulsed target cells efficiently; also recorded: could recognize all four peptide/MHC complexes
- peptide concentration at which CTLs specific for TARP-29-37-9V recognize targets pulsed with the named peptide (avidity) [1]: only slightly lower avidity

Substance: FLRNFSLMV (TARP peptide with a L9V substitution.) [TARP-29-37-9V]
- cross-reactivity of murine CD8^+ CTL induced with the peptide: recognition of wild-type TARP-29-37 and other peptides on pulsed targets (A2K^b transgenic mice): slightly more potent in killing targets pulsed with wild-type TARP-29-37; also recorded: most immunogenic of the peptides in inducing CTLs specific for the wild-type sequence
- killing of target cells pulsed with TARP-27-35 by murine CTL induced with the peptide (A2K^b transgenic mice): could also kill target cells pulsed with TARP-27-35
- frequency of CD8^+ T cells specific for the individual peptide, compared to wild-type TARP-29-37 (A2K^b transgenic mice): almost two-fold higher frequencies of CD8^+ T cells; also recorded: higher level of CD8^+ T cell responses than TARP-29-37
- recognition of TARP-27-35 by human CTL raised with the peptide [1]: to some extent
- cross-reactivity of human CD8^+ CTL raised with the peptide to other peptides (wild-type TARP-29-37, enhanced epitopes) [1]: could recognize both wild-type and TARP-29-37-3A comparably; also recorded: killed the wild-type peptide (TARP-29-37, SEQ ID NO: 5)-pulsed target cells efficiently; also recorded: to a similar degree to the immunogen
- peptide concentration at which CTLs specific for TARP-29-37-9V recognize targets pulsed with the named peptide (avidity) [1]: 0.001 µM
- lytic activity against MCF-7 of CD8^+ CTL specific for the peptide (MCF-7; [2]): higher lytic activity against MCF-7; also recorded: could kill human tumor cells
- binding affinity to HLA-A2.1 molecules compared with another peptide (HLA-A2.1 molecules): lower binding affinity to HLA-A2.1 than TARP-29-37-3A; also recorded: did enhance the binding affinity of wild-type peptide
- cycles of in vitro restimulation needed to detect peptide-specific CD8^+ T cells (CD8^+ T cells): at least five cycles

- binding capacity to HLA-A2.1 molecules (HLA-A2.1 molecules): showed measurable binding capacity
Substance: FVFLRNFSL (listed as Homo sapiens) [TARP-27-35]
- cross-reactivity of murine CD8^+ CTL induced with the peptide: recognition of wild-type TARP-29-37 and other peptides on pulsed targets (A2K^b transgenic mice): did not recognize TARP-29-37
- frequency of CD8^+ T cells specific for the individual peptide, compared to wild-type TARP-29-37 (A2K^b transgenic mice): higher frequency of CD8^+ CTL specific for the peptide
- number of IFN-γ-producing CD8^+ T cells, of total CD8^+ T cells (A2K^b transgenic mice): 2.1%
- cytolytic activity of human CD8^+ CTL raised with the peptide against targets pulsed with the corresponding peptide [1]: higher levels of cytolytic activity against the corresponding peptides; also recorded: lysed TARP-27-35-pulsed target cells
- cross-reactivity of human CD8^+ CTL raised with the peptide to other peptides (wild-type TARP-29-37, enhanced epitopes) [1]: poorly recognized other peptide/MHC complexes tested; also recorded: did not recognize other peptides as much as they did the immunogens
- lytic activity against MCF-7 of CD8^+ CTL specific for the peptide (MCF-7; [2]): higher lytic activity against MCF-7; also recorded: could kill human tumor cells as well
- binding affinity to HLA-A2.1 molecules compared with another peptide (HLA-A2.1 molecules): almost a ten-fold higher binding affinity

Substance: TARP-2-9: amino acids 2-9 of SEQ ID NO: 1 (QMFPPSPL; listed as Homo sapiens)
- binding capacity to HLA-A2.1 molecules (HLA-A2.1 molecules): Neither TARP-2-9 nor TARP-22-30 showed any measurable binding affinity

Substance: TARP-22-30: amino acids 22-30 of SEQ ID NO: 1 (RLEHTFVFL; listed as Homo sapiens)
- binding capacity to HLA-A2.1 molecules (HLA-A2.1 molecules): Neither TARP-2-9 nor TARP-22-30 showed any measurable binding affinity

Substance: TARP-27-35-2L: TARP-27-35 substituted at position 2 with Leu (FLFLRNFSL; listed as Homo sapiens)
- binding affinity to HLA-A2.1 molecules compared with another peptide (HLA-A2.1 molecules): did not alter the binding affinity of the wild-type peptide

Substance: TARP-27-35-9V: TARP-27-35 substituted at position 9 with Val (FVFLRNFSV; listed as Homo sapiens)
- binding affinity to HLA-A2.1 molecules compared with another peptide (HLA-A2.1 molecules): did not alter the binding affinity of the wild-type peptide

Substance: substitution with Ala at position 3 in TARP-27-35: TARP-27-35 with Phe at position 3 replaced by Ala (FVALRNFSL; listed as Homo sapiens)
- binding capacity to HLA-A2.1 molecules (HLA-A2.1 molecules): no binding of the peptide to HLA-A2.1 molecules
